Structures can show the parent of a compound that is named as a salt.
Target: T1, WT and mutant human KCNT1 channels (Homo sapiens, UniProt Q5JUK3)
T1 sequence (Q5JUK3 1-1230): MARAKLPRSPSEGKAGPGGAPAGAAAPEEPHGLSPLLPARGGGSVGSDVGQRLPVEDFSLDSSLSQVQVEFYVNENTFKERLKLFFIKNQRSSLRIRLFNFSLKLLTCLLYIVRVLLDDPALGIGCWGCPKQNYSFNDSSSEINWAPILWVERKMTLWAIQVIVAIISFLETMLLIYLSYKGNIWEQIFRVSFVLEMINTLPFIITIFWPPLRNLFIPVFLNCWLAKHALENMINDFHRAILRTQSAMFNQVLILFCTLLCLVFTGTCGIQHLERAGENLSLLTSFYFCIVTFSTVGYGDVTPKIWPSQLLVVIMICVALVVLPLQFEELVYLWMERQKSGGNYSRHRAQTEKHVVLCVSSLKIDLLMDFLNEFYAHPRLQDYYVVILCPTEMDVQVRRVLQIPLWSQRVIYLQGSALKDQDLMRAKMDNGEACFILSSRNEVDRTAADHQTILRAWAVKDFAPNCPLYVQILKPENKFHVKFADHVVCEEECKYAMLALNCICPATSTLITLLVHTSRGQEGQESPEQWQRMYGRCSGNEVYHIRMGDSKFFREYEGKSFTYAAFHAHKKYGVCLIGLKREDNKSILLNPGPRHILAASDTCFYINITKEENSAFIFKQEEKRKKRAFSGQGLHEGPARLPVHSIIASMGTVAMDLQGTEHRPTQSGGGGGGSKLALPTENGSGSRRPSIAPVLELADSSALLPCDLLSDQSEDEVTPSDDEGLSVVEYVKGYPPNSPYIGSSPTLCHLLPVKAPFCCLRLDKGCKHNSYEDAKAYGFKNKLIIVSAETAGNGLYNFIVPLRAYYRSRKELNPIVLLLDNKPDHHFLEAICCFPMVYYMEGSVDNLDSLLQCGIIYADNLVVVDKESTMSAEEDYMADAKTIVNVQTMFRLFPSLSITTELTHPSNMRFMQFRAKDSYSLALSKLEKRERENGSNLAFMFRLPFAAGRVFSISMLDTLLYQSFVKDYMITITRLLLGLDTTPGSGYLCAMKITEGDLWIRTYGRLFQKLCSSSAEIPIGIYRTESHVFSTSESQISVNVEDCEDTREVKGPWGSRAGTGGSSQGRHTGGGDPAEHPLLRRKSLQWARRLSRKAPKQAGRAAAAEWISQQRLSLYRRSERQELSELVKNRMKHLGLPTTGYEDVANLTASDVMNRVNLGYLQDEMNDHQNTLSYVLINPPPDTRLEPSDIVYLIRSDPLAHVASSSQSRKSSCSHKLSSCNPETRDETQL
Assay: Inside-out patch clamp, statements pooled over WT and mutant channels
Type: cell-based
Settings: inside-out patches; for inhibition at 0.25 µM: 250 nM
Description: The CHO cells were cultured in Dulbecco's modified Eagle's Medium (ThermoFisher, UK) supplemented with 10% (v/v) fetal bovine serum, 50 U/ml penicillin and 0.05 mg/ml streptomycin, and incubated at 37°C in 5% CO2 atmosphere. For whole cell recording of WT/Y796H KCNT1, CHO cells were transiently co‐transfected with concatemeric WT/Y796H and EYFP, as described previously.[29] For electrophysiological experiments, cells were plated onto borosilicate glass cover slips and used 2 to 4 days later. Human embryonic kidney 293T cells (HEK293T) were cultured in the same manner, but with medium supplemented with 2 mM L‐glutamine, and 1% (v/v) nonessential amino acids. For excised inside‐out recording of homomeric WT or mutant YFP‐tagged KCNT1, HEK293T cells plated on glass cover slips were transfected using Attractene Transfection Reagent (Qiagen, Germany) according to the manufacturer's instructions and used 2 to 3 days later.
Inside‐out patch clamp recordings were made at room temperature (23°C) from transiently transfected HEK293T cells, as described previously.[11] The pipette solution contained, in mM, 140 NaCl, 4 KCl, 2 CaCl2, 2 MgCl2, and 10 HEPES adjusted to pH 7.4 with NaOH. After achieving the inside‐out configuration, the intracellular face of the membrane was constantly perfused with a solution containing, in mM, 35 NaCl, 110 KCl, 0.2 EGTA, and 10 HEPES adjusted to pH 7.3 with KOH. Drug stock solutions of 5 to 20 mM in DMSO were first diluted in ethanol (1:10) and then in electrophysiological solution. KCNT1 currents were recorded using 2 voltage protocols, depending on the number of active channels in the patch before drug application. Macroscopic currents (number of active channels > 15) were recorded in response to 100 ms voltage ramps between −120 and 120 mV applied every 2 seconds from a holding potential of −78 mV. The average current amplitudes between 0 and 40 mV were used for the analyses and constructing the concentration‐response curves. With a lower number of active channels in the patch (3–15), current traces were recorded in response to 15‐second voltage steps to −20, 0, and 20 mV from a holding potential of −78 mV. Currents recorded at each voltage and each drug concentration were averaged over the duration of the trace and normalized to the average amplitudes of the corresponding current traces in drug‐free solution. The normalized data for all 3 voltage steps were then averaged for each drug concentration and used to build the concentration‐response curves (see Supplementary Fig S3). To determine the IC50, data were fitted with the Hill equation, as described previously.[11] Single channel data were analyzed using Ana software developed by Dr Michael Pusch (Istituto di Biofisica, Genova, Italy; http://users.ge.ibf.cnr.it/pusch/programs-mik.htm). […]

| Compound | inhibition at 0.25 µM | inhibition at 0.3 µM (300 nM, read-out: inhibition of single KCNT1 channels) | IC50 (read-out: direct IC50 on single KCNT1 channels) |
| --- | --- | --- | --- |
| O=C(OCCN1CCN(c2cccc(C(F)(F)F)c2)CC1)c1ccccc1Nc1ccnc2cc(C(F)(F)F)ccc12 [antrafenine] | 80 to 90% | ~90% | ~10 nM |
| Cc1c(O)cccc1C(=O)N[C@@H](CSc1ccccc1)[C@H](O)CN1C[C@H]2CCCC[C@H]2C[C@H]1C(=O)NC(C)(C)C [nelfinavir mesylate] | 80 to 90% | – | – |

Reference: article PMC12682947, “Identification of New KCNT1‐Epilepsy Drugs by In Silico, Cell, and Drosophila Modeling” (Annals of Neurology, 2025)
